From US9624249B2, “Nucleoside kinase bypass compositions and methods” (Merck Sharp & Dohme Corp., priority 2013, dated 2017)
Where two headings read alike, the source gives them in different places.

What was measured:
[1] = test system: hepatitis virus C (HCV) genotype 1a; experiment: HCV subgenomic replicon assay (RHEPTAQ), genotype 1a; type: cell-based; details: RHEPTAQ replicon, genotype 1a; for EC50: read-out: EC50(1a); for EC90: read-out: EC90(1a)
Source text: (§1) Table 3 and Table 4 summarize the measured activities of these prodrugs as assessed in a subgenomic replicon assay (RHEPTAQ), against genotypes 1a, 1b and 2a.

[2] = test system: hepatitis virus C (HCV) genotype 1b; experiment: HCV subgenomic replicon assay (RHEPTAQ), genotype 1b; type: cell-based
Source text: as §1

[3] = test system: hepatitis virus C (HCV) genotype 2a; experiment: HCV subgenomic replicon assay (RHEPTAQ), genotype 2a; type: cell-based
Source text: as §1

[4] = test system: HIV-1 (H9IIIB virus); experiment: Viking assay: multiple round HIV-1 infection assay in MT4-GFP cells; type: cell-based
Method: Assessing Antiviral Potency in a Multiple Round HIV-1 Infection Assay
The antiviral activity of the tenofovir prodrugs was assessed in a Viking assay performed as follows. HIV-1 replication was monitored using MT4-gag-GFP clone D3 (hereafter designate MT4-GFP), which are MT-4 cells modified to harbor a GFP reporter gene, the expression of which is dependent on the HIV-1 expressed proteins tat and rev. Productive infection of an MT4-GFP cell with HIV-1 results in GFP expression approximately 24 h post-infection.
MT4-GFP cells were maintained at 37° C./5% CO2/90% relative humidity in RPMI 1640 supplemented with 10% fetal bovine serum, 100 U/ml penicillin/streptomycin, and 400 μg/ml G418 to maintain the reporter gene. For infections, MT4-GFP cells were placed in the same medium lacking G418 and infected overnight with H9IIIB virus at an approximate multiplicity of infection of 0.01 in the same incubation conditions. Cells were then washed and resuspended in either RPMI 1640 containing 10% normal human serum at 1.6×10^5 cells/mL (10% NHS conditions) or in 100% normal human serum at 2×10^5 cells/mL (100% NHS conditions). Compound plates were prepared by dispensing compounds dissolved in DMSO into wells of 384 well poly D lysine-coated plates (0.2 μl/well) using an ECHO acoustic dispenser. Each compound was tested in a 10 point serial 3-fold dilution (typical final concentrations: 4.2 μM-0.21 nM). Controls included no inhibitor (DMSO only) and a combination of three antiviral agents (efavirenz, indinavir, and the integrase strand transfer inhibitor N1-ethyl-N1-((7S,10R)-2-((4-fluorobenzyl)-carbamoyl)-3-hydroxy-7-methoxy-4-oxo-4,6,7,8,9,10-hexahydropyrimido-[1,2-a]azepin-10-yl)-N2,N2-dimethyloxalamide at final concentrations of 4 μM each). Cells were added (50 μL/well) to compound plates and the infected cells were maintained at 37° C./5% CO2/90% relative humidity.
Infected cells were quantified at two time points, ˜48 h and ˜72 h post-infection, by counting the number of green cells in each well using an Acumen eX3 scanner. The increase in the number of green cells over ˜24 h period gives the reproductive ratio, R0, which is typically 5-15 and has been shown experimentally to be in logarithmic phase (data not shown) Inhibition of R0 is calculated for each well, and IC50s determined by non-linear 4-parameter curve fitting.

[5] = CTG LD50 (cytotoxicity)
[6] = test system: peripheral blood mononuclear cells (PBMCs); details: pbmc; cited from earlier work
[7] = test system: HCV GT1b; details: Cho et al. 2012, Table 1; cited from earlier work
[8] = RHEPTAQ replicon, genotype 1b, read-out: EC50(1b)
[9] = RHEPTAQ replicon, genotype 1b, read-out: EC90(1b)
[10] = RHEPTAQ replicon, genotype 2a, read-out: EC50(2a)
[11] = RHEPTAQ replicon, genotype 2a, read-out: EC90(2a)
[12] = Human immunodeficiency virus 1, read-out: Viking IP

Compound: C[C@@]1(O)[C@@H]2OP(=O)(OC3CSSC[C@@H]3OCc3ccccc3)OCC2O[C@H]1n1ccc(=O)[nH]c1=O (single isomer, unassigned) [drawing 109 isomer 1]
- EC50 [1]: 70 nM
- EC90 [1]: 233 nM
- EC50 [2, 8]: 110 nM
- EC90 [2, 9]: 383 nM
- EC50 [3, 10]: 90 nM
- EC90 [3, 11]: 442 nM

Compound: C[C@H](Cn1cnc2c(N)ncnc21)OCP(=O)(Oc1ccccc1F)OC1CSSC[C@@H]1OCc1ccccc1 (stereo partly shown) [Entry 2]
- IC50 [4, 12]: 605 nM
- CTG LD50 [5]: >8.403 µM

Compound: COc1ccc(OP(=O)(CO[C@H](C)Cn2cnc3c(N)ncnc32)OC2CSSC[C@@H]2OCc2ccccc2)cc1 (stereo partly shown) [Entry 11]
- IC50 [4, 12]: 2920 nM
- CTG LD50 [5]: >42.02 µM

Compound: CC(Cn1cnc2c(N)ncnc21)OCP(=O)(O)OP(=O)(O)OP(=O)(O)O (stereo in doubt) [tenofovir diphosphate]
- half-life in peripheral blood mononuclear cells (PBMCs) [6]: > 100 h

Compound: C[C@H](Cn1cnc2c(N)ncnc21)OCP(=O)(Oc1cccc(Cl)c1)OC1CSSC[C@@H]1OCc1ccccc1 (stereo partly shown) [Entry 6]
- IC50 [4, 12]: 1880 nM
- CTG LD50 [5]: >8.403 µM

Compound: C[C@H](Cn1cnc2c(N)ncnc21)OCP(=O)(Oc1ccccc1)OC1CSSC[C@H]1OCc1ccccc1 (stereo partly shown) [Entry 14]
- IC50 [4, 12]: 1260 nM
- CTG LD50 [5]: >8.403 µM

Compound: C[C@H](Cn1cnc2c(N)ncnc21)OCP(=O)(Oc1ccc(F)cc1)OC1CSSC[C@@H]1OCc1ccccc1 (stereo partly shown) [Entry 4]
- IC50 [4, 12]: 2000 nM
- CTG LD50 [5]: >8.403 µM

Compound: C[C@@]1(O)[C@@H]2OP(=O)(OC3CSSC[C@@H]3OCc3ccccc3)OCC2O[C@H]1n1ccc(=O)[nH]c1=O (single isomer, unassigned) [drawing 109 isomer 3 and 4]
- EC50 [1]: 305 nM
- EC90 [1]: 782 nM
- EC50 [2, 8]: 362 nM
- EC90 [2, 9]: 783 nM
- EC50 [3, 10]: 315 nM
- EC90 [3, 11]: 1070 nM

Compound: C[C@@]1(O)[C@@H]2OP(=O)(OC3CSSC[C@@H]3OCc3ccccc3)OCC2O[C@H]1n1ccc(=O)[nH]c1=O (single isomer, unassigned) [drawing 109 isomer 2]
- EC50 [1]: 50 nM
- EC90 [1]: 154 nM
- EC50 [2, 8]: 37 nM
- EC90 [2, 9]: 245 nM
- EC50 [3, 10]: 44 nM
- EC90 [3, 11]: 244 nM

Compound: C#CCO[C@H]1CSSCC1OP(=O)(NCc1ccccc1)OCC1O[C@@H](n2ccc3c(N)ncnc32)[C@](C)(O)[C@@H]1O (stereo partly shown)
- EC50 ([1]; Hepatitis C virus): 12800 nM
- EC90 ([1]; Hepatitis C virus): 25500 nM
- EC50 ([2]; Hepatitis C virus, read-out: EC50(1b), RHEPTAQ replicon, genotype 1b): 8500 nM
- EC90 ([2]; Hepatitis C virus, read-out: EC90(1b), RHEPTAQ replicon, genotype 1b): 17700 nM
- EC50 ([3]; Hepatitis C virus, read-out: EC50(2a), RHEPTAQ replicon, genotype 2a): 1900 nM
- EC90 ([3]; Hepatitis C virus, read-out: EC90(2a), RHEPTAQ replicon, genotype 2a): 7900 nM

Compound: C[C@H](Cn1cnc2c(N)ncnc21)OCP(=O)(O)OC1CSSC[C@H]1OCc1ccccc1 (stereo partly shown) [Entry 16]
- IC50 ([4]; Human immunodeficiency virus 1, inhibition of reproductive ratio R0, MT4-GFP cells infected with H9IIIB, serum condition not stated, read-out: Viking IP): > 8400 nM

Compound: C[C@H](Cn1cnc2c(N)ncnc21)OCP(=O)(Oc1ccc(Cl)cc1)OC1CSSC[C@@H]1OCc1ccccc1 (stereo partly shown) [Entry 5]
- IC50 [4, 12]: 1590 nM
- CTG LD50 [5]: >8.403 µM

Compound: C[C@@]1(O)[C@H](O)[C@@H](CO)O[C@H]1n1ccc(=O)[nH]c1=O [2′-C-Me-U, 2′-C-methyl-uridine]
- EC50 [7]: 15200 nM

Compound: C[C@H](Cn1cnc2c(N)ncnc21)OCP(=O)(Oc1ccccc1Cl)OC1CSSC[C@@H]1OCc1ccccc1 (stereo partly shown) [Entry 7]
- IC50 [4, 12]: 1590 nM
- CTG LD50 [5]: >8.403 µM

Compound: Cc1ccc(OP(=O)(CO[C@H](C)Cn2cnc3c(N)ncnc32)OC2CSSC[C@@H]2OCc2ccccc2)cc1 (stereo partly shown) [Entry 9]
- IC50 [4, 12]: 1640 nM
- CTG LD50 [5]: >42.02 µM
